Test results taken from article PMC6458995, “MAP4K4 Inhibition Promotes Survival of Human Stem Cell-Derived Cardiomyocytes and Reduces Infarct Size In Vivo” (Cell Stem Cell, 2019).

How the values were obtained:
[1] = target: cardiac MAP4K4 (Mus musculus, UniProt P97820); assay: Target engagement ex vivo (block to desthiobiotin-ATP binding); details: adult mouse cardiac lysates; versus F1386-0303
Method: Lysates were prepared and assayed using a desthiobiotin-ATP probe Kinase Enrichment Kit (Thermo Fisher Scientific) ([Patricelli et al., 2011]). In brief, tissue samples (100-120 mg) were cut into small pieces and resuspended in 1 mL of Lysis Buffer containing protease and phosphatase inhibitors. After homogenization (30 s on ice), the lysates were centrifuged (16,000 x g at 4°C for 10 min) and a buffer-exchange to Reaction Buffer was performed, to remove endogenous ATPs. Protein concentrations were measured by the BCA assay (Thermo Fisher Scientific). Compounds were added to 500 μL of lysate at 2 mg/ml in presence of 20 mM MgCl2 and incubated for 10 min at room temperature. The ActivX desthiobiotin-ATP probe (5 μM) was added, and samples were incubated for 10 min. Reactions were stopped by adding 500 μL of 8 M Urea/Lysis Buffer, and labeled kinases were captured by incubating samples with 60 μL of 50% Streptavidin-Agarose beads. Samples were incubated with constant inversion for 2 hr at room temperature. Samples were centrifuged (1000 x g for 1 min) and washed three times with 500 μL of 4 M Urea/Lysis Buffer. Captured kinases were eluted by boiling in 30 μL of Laemmli sample buffer for 15 min. Samples were analyzed by western blotting for MAP4K4 and for Src or p38 and were normalized to the capture of the untargeted control kinase.

[2] = IV PK (plasma concentrations after intravenous administration); format: in vivo, mice; details: IV PK (1 mg kg^−1); for Cmax / Vd / clearance / half-life: mouse, mice, plasma
[3] = target: TNIK/MAP4K7 (Homo sapiens, UniProt Q9UKE5); assay: HTRF Transcreener ADP kinase assay; format: biochemical
Chain of TNIK/MAP4K7 (Q9UKE5 whole entry): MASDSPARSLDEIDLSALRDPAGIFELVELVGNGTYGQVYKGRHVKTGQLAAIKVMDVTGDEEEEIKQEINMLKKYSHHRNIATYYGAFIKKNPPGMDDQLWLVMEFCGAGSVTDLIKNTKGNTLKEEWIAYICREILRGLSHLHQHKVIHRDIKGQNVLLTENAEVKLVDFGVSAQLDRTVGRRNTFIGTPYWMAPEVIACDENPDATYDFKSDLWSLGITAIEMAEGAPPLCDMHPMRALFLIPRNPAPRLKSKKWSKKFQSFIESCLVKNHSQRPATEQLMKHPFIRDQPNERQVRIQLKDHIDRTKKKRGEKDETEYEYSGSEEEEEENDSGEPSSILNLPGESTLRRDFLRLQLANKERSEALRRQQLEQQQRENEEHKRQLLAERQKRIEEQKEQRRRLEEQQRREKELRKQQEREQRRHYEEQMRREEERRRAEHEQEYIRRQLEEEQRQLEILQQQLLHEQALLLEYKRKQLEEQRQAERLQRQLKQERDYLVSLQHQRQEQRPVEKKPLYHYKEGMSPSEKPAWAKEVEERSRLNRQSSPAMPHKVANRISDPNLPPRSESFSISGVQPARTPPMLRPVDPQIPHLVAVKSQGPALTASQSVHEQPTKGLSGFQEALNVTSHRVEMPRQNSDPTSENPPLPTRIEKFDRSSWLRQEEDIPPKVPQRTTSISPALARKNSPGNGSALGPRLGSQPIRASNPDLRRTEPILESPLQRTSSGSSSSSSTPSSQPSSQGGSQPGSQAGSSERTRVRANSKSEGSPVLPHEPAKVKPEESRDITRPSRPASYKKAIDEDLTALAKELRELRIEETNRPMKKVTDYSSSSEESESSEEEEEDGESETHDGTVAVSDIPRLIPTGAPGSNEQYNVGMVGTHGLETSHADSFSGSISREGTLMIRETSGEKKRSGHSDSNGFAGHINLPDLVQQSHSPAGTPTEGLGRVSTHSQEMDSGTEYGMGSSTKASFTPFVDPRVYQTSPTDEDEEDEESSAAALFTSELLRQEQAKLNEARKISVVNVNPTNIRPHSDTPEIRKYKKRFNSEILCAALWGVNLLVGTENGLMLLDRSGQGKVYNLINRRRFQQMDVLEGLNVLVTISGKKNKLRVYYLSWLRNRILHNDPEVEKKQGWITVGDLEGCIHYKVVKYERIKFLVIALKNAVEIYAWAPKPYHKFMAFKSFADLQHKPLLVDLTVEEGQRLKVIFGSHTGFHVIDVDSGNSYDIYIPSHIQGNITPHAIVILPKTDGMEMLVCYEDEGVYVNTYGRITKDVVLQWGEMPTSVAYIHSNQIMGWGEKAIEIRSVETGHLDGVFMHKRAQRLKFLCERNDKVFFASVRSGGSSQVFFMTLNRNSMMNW
Method: (§1) In the detection step, endogenous ADP and d2-labeled ADP compete for binding an anti-ADP monoclonal antibody labeled with Eu^3+ cryptate. A ratiometric fluorescent readout is used at 665 and 620 nm. […] Assays were run in Greiner low volume plates with a final reaction volume of 10 μl. […] Data were either reported as % inhibition at a single dose or as pIC50 values derived from dose response curves (pIC50 = -log[IC50]). Kinase selectivity profiling was performed by the International Centre for Kinase Profiling, MRC Protein Phosphorylation and Ubiquitylation Unit (141 kinases; Premier Screen, http://www.kinase-screen.mrc.ac.uk), using a [γ-^33P]ATP filter binding assay ([Bain et al., 2007]). Compounds were screened at 1 μM. For key hits, pIC50 values were then determined by HTRF as above. […] Stability in mouse and human liver microsomes was determined by Cyprotex.

[4] = target: MINK1/MAP4K6 (Homo sapiens, UniProt Q8N4C8); assay: HTRF Transcreener ADP kinase assay; format: biochemical
Chain of MINK1/MAP4K6 (Q8N4C8 whole entry): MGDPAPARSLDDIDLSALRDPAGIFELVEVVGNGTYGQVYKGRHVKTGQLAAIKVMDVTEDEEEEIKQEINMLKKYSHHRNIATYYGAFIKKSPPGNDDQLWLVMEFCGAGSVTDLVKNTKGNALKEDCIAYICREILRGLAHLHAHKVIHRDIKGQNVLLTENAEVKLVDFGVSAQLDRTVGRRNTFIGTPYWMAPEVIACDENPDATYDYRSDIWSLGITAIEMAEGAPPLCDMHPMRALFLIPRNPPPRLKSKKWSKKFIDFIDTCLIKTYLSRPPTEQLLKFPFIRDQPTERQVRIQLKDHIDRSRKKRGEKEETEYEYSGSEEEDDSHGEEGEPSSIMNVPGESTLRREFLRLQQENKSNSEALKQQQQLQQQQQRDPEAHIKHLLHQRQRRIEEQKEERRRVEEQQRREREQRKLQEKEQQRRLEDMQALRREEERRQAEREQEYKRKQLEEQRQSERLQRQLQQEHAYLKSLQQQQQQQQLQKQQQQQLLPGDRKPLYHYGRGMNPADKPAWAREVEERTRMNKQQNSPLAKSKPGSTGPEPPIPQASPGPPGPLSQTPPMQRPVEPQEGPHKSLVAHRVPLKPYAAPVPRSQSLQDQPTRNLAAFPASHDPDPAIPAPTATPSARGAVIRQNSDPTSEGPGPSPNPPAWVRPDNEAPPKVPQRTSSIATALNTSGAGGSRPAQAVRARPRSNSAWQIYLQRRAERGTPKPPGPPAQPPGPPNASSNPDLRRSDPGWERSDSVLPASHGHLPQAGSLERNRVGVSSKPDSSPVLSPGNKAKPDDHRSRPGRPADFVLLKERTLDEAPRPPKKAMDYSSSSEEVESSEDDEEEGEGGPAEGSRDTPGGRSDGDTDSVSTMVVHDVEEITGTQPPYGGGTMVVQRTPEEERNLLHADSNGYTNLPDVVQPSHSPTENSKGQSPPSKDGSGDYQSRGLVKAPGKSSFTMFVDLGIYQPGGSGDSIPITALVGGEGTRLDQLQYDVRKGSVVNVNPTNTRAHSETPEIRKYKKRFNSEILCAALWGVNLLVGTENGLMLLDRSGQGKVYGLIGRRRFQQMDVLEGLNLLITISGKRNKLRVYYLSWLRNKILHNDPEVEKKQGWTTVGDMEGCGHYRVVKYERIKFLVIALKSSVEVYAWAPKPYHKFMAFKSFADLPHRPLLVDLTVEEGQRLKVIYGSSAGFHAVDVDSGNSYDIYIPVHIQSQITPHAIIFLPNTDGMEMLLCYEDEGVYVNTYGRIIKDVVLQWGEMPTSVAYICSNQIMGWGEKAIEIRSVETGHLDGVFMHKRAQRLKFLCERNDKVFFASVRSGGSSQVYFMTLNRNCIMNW
Method: as §1

[5] = test system: iCell cardiomyocytes; assay: CellTiter-Glo protection from 400 μM H2O2; format: cell-based; details: Homo sapiens, Cardiomyocyte, read-out: EC50 in iCell cardiomyocytes (protecting hiPSC-CMs)
Method: iCell cardiomyocytes were thawed, transferred to Plating Medium, counted using a Vi-CELL XR cell viability analyzer (Beckman Coulter), and seeded into 24-well plates for RNA collection (60,000 cells well^-1; Greiner) or μClear half-area 96-well plates for gene silencing (10,000 cells well^-1; Greiner). Plates were coated with 10 μg ml^-1 collagen type I (BD Biosciences). Cells were cultured in iCell Cardiomyocytes Plating Medium for 2 d and in Maintenance Medium thereafter. For compound dose-response comparisons, the cells were deposited in Plating Medium at 10,000 cells well^-1 in 0.1% (w/v) gelatin-coated 384-well white Greiner plates and were cultured as above for 8 d before treatment.
For cell-based dose-response experiments, MAP4K4 inhibitors were prepared in 96-well polypropylene plates as serial dilutions in DMSO of 10 mM stock solutions. […]
Assay plates were removed from the incubator, allowed to reach room temperature, inoculated with 20 μl well^-1 CTG reagent (Promega), and gently agitated for 30 min. […] Luminescence due to ATP, proportional to cell number, was captured on a PHERAstar Plus microplate reader (BMG Labtech). […]

[6] = test system: cardiomyocyte apoptosis; assay: Cardiomyocyte apoptosis after myocardial infarction (TUNEL staining); format: in vivo, mice; details: post-injury study
Method: Mice were treated subcutaneously with 0.024 mg buprenorphine (average, 1.1 mg kg^-1; […] Animal Health), intubated, and ventilated using a tidal volume of 250 μL and respiratory rate of 150 breaths min^-1 (Hugo-Sachs MiniVent type 845; Harvard Apparatus). After a left thoracotomy in the fourth intercostal space, the pericardium was removed. A 6-0 polypropylene suture was used to […] anterior descending coronary artery (LAD) and tied against a short section of PE-50 polyethylene tubing for 45 min; blood flow was re-established by removing the tubing, releasing the ligature. Ischemia and reperfusion were substantiated by reversible distal blanching and ST segment elevation. Mice were allowed to recover in a heated chamber for 20 min, then moved to a normal holding cage with supplemental heat if necessary. […] Nuclei were stained with 2.5 μg ml^-1 diamidinophenolindole (DAPI). Alternatively, fixed frozen sections were used. Cleaved DNA (apoptotic cells) was visualized using TUNEL ApopTag Kits (Millipore). Cardiomyocytes were identified using MF20 antibody to sarcomeric myosin heavy chains (MyHC; R&D Systems) (fluorescein-conjugated: Figure S3C; unconjugated, plus Alexa Fluor-555 anti-mouse IgG: Figure […]; conjugated and unconjugated mouse IgG2b were the respective controls). Sections were counterstained with DAPI and treated with Prolong Gold Antifade Mountant (Life Technologies). […]

Chain of cardiac MAP4K4 (P97820 2-310 limits assumed): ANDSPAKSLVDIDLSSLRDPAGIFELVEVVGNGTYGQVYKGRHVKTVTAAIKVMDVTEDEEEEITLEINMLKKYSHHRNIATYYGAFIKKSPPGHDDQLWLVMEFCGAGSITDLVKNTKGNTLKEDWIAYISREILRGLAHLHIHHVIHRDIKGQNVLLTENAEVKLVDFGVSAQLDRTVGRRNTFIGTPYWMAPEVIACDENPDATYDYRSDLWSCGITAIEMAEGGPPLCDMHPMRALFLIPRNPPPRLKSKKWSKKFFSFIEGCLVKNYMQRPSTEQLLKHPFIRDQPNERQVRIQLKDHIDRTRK

Structure (SMILES) | greater affinity over the earlier compound (target engagement ex vivo) [1] [×] | Cmax [2] [nM] | Vd [2] [L/kg] | clearance [2] [mL/min/kg] | half-life [2] [min] | Cl, DMX-5804 versus F1386-0303 ([2]; ratio) | Cmax, DMX-5804 versus F1386-0303 ([2]; ratio) | Vd, DMX-5804 versus F1386-0303 ([2]; ratio) | t1/2, DMX-5804 versus F1386-0303 ([2]; ratio) | IC50 [3] [nM] | IC50 [4] [nM] | EC50 [5] [nM] | suppression of cardiomyocyte apoptosis in adjacent jeopardized myocardium [6] [%] | suppression of cardiomyocyte apoptosis within the infarct [6] [%]
COCCOc1ccc(-c2cn(-c3ccccc3)c3nc[nH]c(=O)c23)cc1 [DMX-5804, 5-[4-(2-methoxy-ethoxy)-phenyl]-7-phenyl-3,7-dihydro-pyrrolo[2,3-d]pyrimidin-4-one] | 10 | 1590 | 1.22 | 41.7 | 36 | 0.47 | 0.49 | 1.16 | 6.00 | 11 | 6.61 | 500 | 52 | 39
Oc1ncnc2c1c(-c1ccccc1)cn2-c1ccccc1 [F1386-0303, 5,7-diphenyl-7H-pyrrolo[2,3-d]pyrimidin-4-ol] | – | 3260 | 1.05 | 88.8 | 6 | – | – | – | – | 93.3 | 38 | 5000 | – | –
